Measured values from publication PMC3520974, “Differential Dynamic Engagement within 24 SH3 Domain: Peptide Complexes Revealed by Co-Linear Chemical Shift Perturbation Analysis” (PLoS ONE, 2012).

Key:
[1] = system: Abp1p SH3 domain (AbpSH3); assay: Isothermal titration calorimetry of peptide binding to AbpSH3; design: species or system yeast
Procedure: Binding isotherms were recorded as previously at 30°C [23]. Enthalpy changes were measured at 4 different temperatures (20, 25, 30, 35°C) and the slopes of temperature vs. enthalpy change were fit to yield the change in heat capacity. All samples were in 50 mM sodium phosphate, 100 mM NaCl, 1 mM EDTA pH 7.0. Errors are ±95% confidence intervals except the ΔCP values, which report the standard error of the least squared fit to the data (ΔH vs. temperature).

[2] = system: Abp1p SH3 domain (AbpSH3); assay: Hydrogen exchange protection of AbpSH3 complexes by NMR; assay type: binding, yeast; settings: sum of log amide protection factors of SII residues; 99% peptide-saturated 100 µM AbpSH3 in D2O, pH 7.0, 18°C, HSQC every 20 minutes over 24 hours
Procedure: All hydrogen exchange experiments were conducted in 50 mM sodium phosphate, 100 mM NaCl, 1 mM EDTA pH 7.0, 18°C. Based on the known binding constants, sufficient peptide was added to 100 µM AbpSH3 such that 99% saturation was achieved (this was confirmed by comparing the chemical shifts of previously recorded peptide-saturated samples) for 7 different AbpSH3 complexes (Table S4). The samples were lyophilized and resuspended in D2O, and ^1H-^15N HSQC spectra were recorded every 20 minutes over a period of 24 hours. Many peaks disappeared over time. Intensities of peaks were fit to exponential curves, to yield observed rate constants (kexchange) for each amide group. The rate constant was converted to log protection factor (P), log10(kintrinsic/kexchange) using values for amide protection of free amino acids (http://hx2.med.upenn.edu/download.html). […] These residues became protected to different degrees in the different complexes although they all still exchanged sufficiently fast for their rates to be accurately calculated within the timeframe of the experiment. The biggest difference for the sum between complexes is about 20, which corresponds to a residue ΔΔG of −2.8 kcal/mol, which is approximately the difference between the strongest and weakest peptide binding energy.

[3] = system: Abp1p SH3 domain (AbpSH3); assay: Co-linear chemical shift perturbation (CCSP) analysis of peptide-saturated AbpSH3 complexes by NMR; assay type: binding, yeast; settings: rank among the 24 complexes; >99% peptide-saturated
Procedure: NMR experiments were carried out at 30°C on Varian 500 MHz spectrometers equipped with pulsed field gradients and a triple resonance probe with actively shielded z-gradients. Data were processed and analyzed using nmrPipe/nmrDraw and nmrView. All spectra were recorded in 50 mM sodium phosphate, 100 mM NaCl, 1 mM EDTA pH 7.0. ^1H-^15N HSQC spectra were collected using standard methods. ^1H-^13C HSQC spectra were recorded using constant time HSQC experiments.
AbpSH3 complexes were assigned using the established assignments of ArkA-bound and free AbpSH3 [8]; serial peptide additions were used to monitor the direction that the peaks moved to assign the final position of the SH3 resonances. […] The assignments were also compared to the previously determined ArkA-AbpSH3 complex resonances. […]
The combined ^1H and ^15N chemical shift differences (in ppm) between each pair of resonances that define the lines x, y and z were calculated using the following expression: δΔ = √((Nppm shift * 0.1)^2+(Hppm shift)^2), where Nppm shift is the difference in ppm in the nitrogen dimension and Hppm is the difference in ppm in the proton dimension. The perpendicular distance (p) between the resonance and the CCSP line was calculated in the following way: p = √(x^2−s^2), where x = length of line connecting resonance to peptide free resonance and s = scalar projection. […]

[4] = target: T1, Abp1p SH3 domain (SH3 domain from the yeast Actin Binding Protein 1) (yeast, UniProt P15891 532-592); assay: NMR titration; 1H-15N HSQC of AbpSH3 (70-100 µM) with serial peptide additions to 99% or greater saturation; 30°C; 50 mM sodium phosphate, 100 mM NaCl, 1 mM EDTA pH 7.0; settings: both partners purified
T1 construct: 15N-labelled for the NMR work; also called AbpSH3
T1 sequence (looked up): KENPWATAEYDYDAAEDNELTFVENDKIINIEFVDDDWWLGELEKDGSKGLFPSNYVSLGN

PRR: 15-residue peptide found N-terminal to AbpSH3 (residues 516 to 530 in Abp1p) (Ac-AAPPPPPRRATPEKK-NH2)
change in heat capacity (ΔCp) on complex formation ([1]; ITC, enthalpy changes at 20, 25, 30, 35°C, slope of ΔH vs. temperature, 50 mM sodium phosphate, 100 mM NaCl, 1 mM EDTA pH 7.0): ~0 kcal/mol K | binding energy ([1]; rank among the 24 complexes, ITC at 30°C): the lowest measured | SII hydrogen exchange protection (Σ LogP in SII) [2]: ~0 | CCSP values in AbpSH3 [3]: lowest

B1: PRR1, 15-residue peptide found N-terminal to AbpSH3 (residues 516 to 530 in Abp1p) (peptide, UniProt P15891 516-530, looked up)
peptide: Ac-AAPPPPPRRATPEKK-NH2
notes: residues 516 to 530 of yeast Abp1p, proline-rich region N-terminal to the SH3 domain, 15 residues; source: synthetic peptide (Biomer tech), purified to greater than 95% by HPLC
binding result [4]: binds
